Consider 73 compounds from the Kinase Knowledgebase extract (Sharma et al. 2016).

Usually IC50 stands for the concentration at which inhibition is half-maximal.

The target in this assay is PIK3CG (human) (UniProt P48736). Nature of the assay: Assessment of PIK3CG Kinase Activity.
PIK3CG (human), sequence (P48736 whole entry, looked up): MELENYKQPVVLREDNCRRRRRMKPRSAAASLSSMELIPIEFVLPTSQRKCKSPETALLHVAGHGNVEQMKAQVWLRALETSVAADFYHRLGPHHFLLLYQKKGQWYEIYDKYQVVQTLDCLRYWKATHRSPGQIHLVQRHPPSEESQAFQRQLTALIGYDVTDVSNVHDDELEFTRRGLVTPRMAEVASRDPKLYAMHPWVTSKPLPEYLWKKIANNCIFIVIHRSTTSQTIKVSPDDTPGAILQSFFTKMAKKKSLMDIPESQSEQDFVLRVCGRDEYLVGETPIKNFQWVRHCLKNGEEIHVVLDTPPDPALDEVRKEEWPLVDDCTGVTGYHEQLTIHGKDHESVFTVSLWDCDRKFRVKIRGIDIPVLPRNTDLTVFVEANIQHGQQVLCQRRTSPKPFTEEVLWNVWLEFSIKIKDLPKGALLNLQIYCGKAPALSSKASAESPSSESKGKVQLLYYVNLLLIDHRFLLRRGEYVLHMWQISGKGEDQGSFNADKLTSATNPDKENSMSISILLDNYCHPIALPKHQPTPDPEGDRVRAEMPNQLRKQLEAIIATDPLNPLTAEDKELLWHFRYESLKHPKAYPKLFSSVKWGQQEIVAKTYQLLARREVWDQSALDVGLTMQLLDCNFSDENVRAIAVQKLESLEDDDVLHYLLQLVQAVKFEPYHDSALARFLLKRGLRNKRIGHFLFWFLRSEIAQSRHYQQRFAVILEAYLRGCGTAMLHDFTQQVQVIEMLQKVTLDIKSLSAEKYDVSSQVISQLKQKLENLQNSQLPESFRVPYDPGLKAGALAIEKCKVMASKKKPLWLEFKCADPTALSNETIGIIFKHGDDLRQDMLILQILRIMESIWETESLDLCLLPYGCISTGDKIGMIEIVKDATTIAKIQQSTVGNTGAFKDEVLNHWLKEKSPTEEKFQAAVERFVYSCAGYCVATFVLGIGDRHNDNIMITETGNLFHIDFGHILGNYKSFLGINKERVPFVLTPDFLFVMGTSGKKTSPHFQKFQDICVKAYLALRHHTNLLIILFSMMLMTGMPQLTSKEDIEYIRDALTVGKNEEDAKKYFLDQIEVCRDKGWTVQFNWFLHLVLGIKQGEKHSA

Compound `CC(C)N1CC(=O)N(C)c2cnc(Nc3cc(C(F)(F)F)cc(S(C)(=O)=O)c3)nc21` had an IC50 of under 800 nM. Take `CC(C)N1CC(=O)N(C)c2cnc(Nc3cc(NC(=O)[C@@H](C)c4ccccc4)cc(S(C)(=O)=O)c3)nc21`: the IC50 was under 800 nM. As for `CC(C)N1CC(=O)N(C)c2cnc(Nc3cc(NS(=O)(=O)c4cccnc4)cc(S(N)(=O)=O)c3)nc21`, the IC50 was under 800 nM. `CC(C)N1CC(=O)N(C)c2cnc(Nc3cc(Cl)cc(S(C)(=O)=O)c3)nc21` came in with an IC50 of under 800 nM.

`CC(C)N1CC(=O)N(C)c2cnc(Nc3cc(NC(=O)N[C@H]4CCN(C5CCOCC5)C4)cc(S(C)(=O)=O)c3)nc21` returned an IC50 of under 800 nM. To `CC(C)N1CC(=O)N(C)c2cnc(Nc3cc(NC(=O)NC[C@@H]4CCCO4)cc(S(C)(=O)=O)c3)nc21` belongs under 800 nM; to `CC(C)N1CC(=O)N(C)c2cnc(Nc3cc(NC(=O)NC[C@H]4CCNC4)cc(S(C)(=O)=O)c3)nc21`, under 800 nM. With `CC(C)N1CC(=O)N(C)c2cnc(Nc3cc(C(=O)NC4CCN(C)CC4)cc(S(C)(=O)=O)c3)nc21` the figure was under 800 nM. Consider `CC(C)N1CC(=O)N(C)c2cnc(Nc3cc(NS(C)(=O)=O)cc(C(=O)NCCN4CCNC4=O)c3)nc21`, for which the half-maximal inhibitory concentration (IC50) was under 800 nM. To `CC(C)N1CC(=O)N(C)c2cnc(Nc3cc(NC(=O)N[C@@H]4CCN(C5CCCC5)C4)cc(NS(C)(=O)=O)c3)nc21` belongs under 800 nM; to `CC(C)N1CC(=O)N(C)c2cnc(Nc3cc(NC(=O)N4CCOCC4)cc(S(C)(=O)=O)c3)nc21`, under 800 nM.

With `CC(C)N1CC(=O)N(C)c2cnc(Nc3cc(NC(=O)[C@H]4CCNC4)cc(S(C)(=O)=O)c3)nc21`, the half-inhibitory concentration (IC50) is under 800 nM.

`CC(C)N1CC(=O)N(C)c2cnc(Nc3cc(C(=O)NCCN(C)C)cc(S(C)(=O)=O)c3)nc21` displayed an IC50 of under 800 nM.

`CC(C)N1CC(=O)N(C)c2cnc(Nc3cc(NC(=O)O[C@@H]4CCN(C5CCCC5)C4)cc(S(C)(=O)=O)c3)nc21`: the IC50 is under 800 nM. Consider `CC(C)N1CC(=O)N(C)c2cnc(Nc3cc(NC(=O)Cc4ccsc4)cc(S(C)(=O)=O)c3)nc21`, for which the IC50 is under 800 nM. With `CC(C)N1CC(=O)N(C)c2cnc(Nc3cc(N(C)C(=O)N[C@H]4CCN(Cc5ccccc5)C4)cc(S(C)(=O)=O)c3)nc21` the figure was under 800 nM; with `CNCCS(=O)(=O)c1cccc(Nc2ncc3c(n2)N(C(C)C)CC(=O)N3C)c1`, under 800 nM. Regarding `CC(C)N1CC(=O)N(C)c2cnc(Nc3cc(C(=O)NCCCN(C)C)cc(S(C)(=O)=O)c3)nc21`, the IC50 was under 800 nM. In the case of `CCN1CCCC1CNC(=O)c1cc(Nc2ncc3c(n2)N(C(C)C)CC(=O)N3C)cc(S(C)(=O)=O)c1` (stereo not drawn), the 50% inhibitory concentration (IC50) was under 800 nM. To `CC(C)N1CC(=O)N(C)c2cnc(Nc3cc(N(C)C(=O)Cc4ccsc4)cc(S(C)(=O)=O)c3)nc21` belongs under 800 nM; to `CC(C)N1CC(=O)N(C)c2cnc(Nc3cc(NC(=O)c4cccc(C#N)c4)cc(S(C)(=O)=O)c3)nc21`, under 800 nM; to `CC(C)N1CC(=O)N(C)c2cnc(Nc3cc(NC(=O)NCCc4cccnc4)cc(S(C)(=O)=O)c3)nc21`, under 800 nM. To `CC(C)N1CC(=O)N(C)c2cnc(Nc3cc(NC(=O)C4CNCCO4)cc(S(C)(=O)=O)c3)nc21` (stereo not drawn) belongs under 800 nM; to `CC(C)N1CC(=O)N(C)c2cnc(Nc3cc(NC(=O)[C@H]4CCCN(C5CCCC5)C4)cc(S(C)(=O)=O)c3)nc21`, under 800 nM; to `CC(C)N1CC(=O)N(C)c2cnc(Nc3cc(N(C)C(=O)Cc4cccc(Cl)c4)cc(S(C)(=O)=O)c3)nc21`, under 800 nM.

As for `CC(C)N1CC(=O)N(C)c2cnc(Nc3cc(NC(=O)N[C@H]4CCNC4)cc(S(C)(=O)=O)c3)nc21`, the IC50 is under 800 nM.

Compound `CC(C)N1CC(=O)N(C)c2cnc(Nc3cc(NS(=O)(=O)c4ccc(N5CCOCC5)nc4)cc(S(N)(=O)=O)c3)nc21` registered an IC50 of under 800 nM. The compound `CC(C)N1CC(=O)N(C)c2cnc(Nc3cc(NC(=O)NCC4CC4)cc(S(C)(=O)=O)c3)nc21` came in with a 50% inhibitory concentration (IC50) of under 800 nM. To `CC(C)N1CC(=O)N(C)c2cnc(Nc3cc(-c4cc(C5CC5)[nH]n4)cc(S(C)(=O)=O)c3)nc21` belongs under 800 nM. To `CC(C)N1CC(=O)N(C)c2cnc(Nc3cc(NS(=O)(=O)c4cccnc4)cc(S(C)(=O)=O)c3)nc21` belongs under 800 nM. `CC(C)N1CC(=O)N(C)c2cnc(Nc3cc(NC(=O)N[C@@H]4CCN(C5CCCC5)C4)cc(S(N)(=O)=O)c3)nc21` yielded an IC50 of under 800 nM. `CC(C)N1CC(=O)N(C)c2cnc(Nc3cc(NC(=O)Cc4ccc(Cl)nc4)cc(S(C)(=O)=O)c3)nc21` had an IC50 of under 800 nM.

`COc1ccc2[nH]c(CC(=O)Nc3cc(Nc4ncc5c(n4)N(C(C)C)CC(=O)N5C)cc(S(C)(=O)=O)c3)cc2c1` yielded a half-inhibitory concentration (IC50) of under 800 nM. On to `CC(C)N1CC(=O)N(C)c2cnc(Nc3cccc(S(=O)(=O)CCN4CCN(C)CC4)c3)nc21`, for which the IC50 is under 800 nM.

Take `CC(C)N1CC(=O)N(C)c2cnc(Nc3cc(NS(C)(=O)=O)cc(C(=O)NCCN(C)C)c3)nc21`: the 50% inhibitory concentration (IC50) was under 800 nM. To `CC(C)N1CC(=O)N(C)c2cnc(Nc3cc(NC(N)=O)cc(S(C)(=O)=O)c3)nc21` belongs under 800 nM; to `CC(C)N1CC(=O)N(C)c2cnc(Nc3cc(C(N)=O)cc(C(F)(F)F)c3)nc21`, under 800 nM.

Consider `Cc1cc(CC(=O)N(C)c2cc(Nc3ncc4c(n3)N(C(C)C)CC(=O)N4C)cc(S(C)(=O)=O)c2)on1`, for which the IC50 was under 800 nM. To `CC(C)N1CC(=O)N(C)c2cnc(Nc3cc(C(=O)N(C)Cc4ccncc4)cc(S(C)(=O)=O)c3)nc21` belongs under 800 nM; to `CC(C)N1CC(=O)N(C)c2cnc(Nc3cc(NS(=O)(=O)CC4CCCCC4)cc(S(C)(=O)=O)c3)nc21`, under 800 nM; to `CC(C)N1CC(=O)N(C)c2cnc(Nc3cc(NC(=O)C4CCCCN4)cc(S(C)(=O)=O)c3)nc21` (stereo not drawn), under 800 nM. Take `CC(C)N1CC(=O)N(C)c2cnc(Nc3cc(NC(=O)NCCN4CCNC4=O)cc(S(C)(=O)=O)c3)nc21`: the IC50 is under 800 nM.

Consider `CC(C)N1CC(=O)N(C)c2cnc(Nc3cc(N(C)C(=O)Cc4ccccc4)cc(S(C)(=O)=O)c3)nc21`, for which the concentration for half-maximal inhibition (IC50) is under 800 nM. For `COc1cc(Nc2ncc3c(n2)N(C(C)C)CC(=O)N3C)cc(S(C)(=O)=O)c1`, the IC50 is under 800 nM. `Cc1cc(CC(=O)Nc2cc(Nc3ncc4c(n3)N(C(C)C)CC(=O)N4C)cc(S(C)(=O)=O)c2)on1` returned an IC50 of under 800 nM. Compound `CC(C)N1CC(=O)N(C)c2cnc(Nc3cc(Br)cc(S(C)(=O)=O)c3)nc21` gave an IC50 of under 800 nM. With `CNC(=O)c1cc(Nc2ncc3c(n2)N(C(C)C)CC(=O)N3C)cc(C(F)(F)F)c1` the figure was under 800 nM.

`CC(C)N1CC(=O)N(C)c2cnc(Nc3cc(NC(=O)Cc4ccccc4)cc(S(C)(=O)=O)c3)nc21` showed a half-inhibitory concentration (IC50) of under 800 nM. As for `CC(C)N1CC(=O)N(C)c2cnc(Nc3cc(NC(=O)CC4CC4)cc(S(C)(=O)=O)c3)nc21`, the half-maximal inhibitory concentration (IC50) is under 800 nM. With `CC(C)N1CC(=O)N(C)c2cnc(Nc3cc(C(=O)NCCC4CCCN4C)cc(C(F)(F)F)c3)nc21` (stereo not drawn) the figure was under 800 nM. The compound `CC(C)N1CC(=O)N(C)c2cnc(Nc3cc(N4CCNC4=O)cc(S(C)(=O)=O)c3)nc21` displayed a concentration for half-maximal inhibition (IC50) of under 800 nM. With `CC(C)N1CC(=O)N(C)c2cnc(Nc3cc(NC(=O)N[C@H]4CCN(C5CCCC5)C4)cc(S(C)(=O)=O)c3)nc21` the figure was under 800 nM; with `CC(C)N1CC(=O)N(C)c2cnc(Nc3cc(NC(=O)O[C@H]4CCN(C5CCCC5)C4)cc(S(C)(=O)=O)c3)nc21`, under 800 nM; with `CC(C)N1CC(=O)N(C)c2cnc(Nc3cc(C(=O)NCc4ccncc4)cc(S(C)(=O)=O)c3)nc21`, under 800 nM. In the case of `CCN1CCCC1CNC(=O)c1cc(Nc2ncc3c(n2)N(C(C)C)CC(=O)N3C)cc(NS(C)(=O)=O)c1` (stereo not drawn), the IC50 is under 800 nM.

In the case of `CC(C)N1CC(=O)N(C)c2cnc(Nc3cc(NC(=O)C[C@@H]4CCNC4)cc(S(C)(=O)=O)c3)nc21`, the 50% inhibitory concentration (IC50) was under 800 nM.

As for `CC(C)N1CC(=O)N(C)c2cnc(Nc3cc(NS(C)(=O)=O)cc(C(=O)NC4CCN(C)C4)c3)nc21` (stereo not drawn), the IC50 was under 800 nM. To `CC(C)N1CC(=O)N(C)c2cnc(Nc3cc(NS(C)(=O)=O)cc(C(=O)NCCCCN(C)C)c3)nc21` belongs under 800 nM; to `CNC(=O)Nc1cc(Nc2ncc3c(n2)N(C(C)C)CC(=O)N3C)cc(S(C)(=O)=O)c1`, under 800 nM. To `CC(C)N1CC(=O)N(C)c2cnc(Nc3cc(N(C)C(=O)N[C@@H](C)c4ccccc4)cc(S(C)(=O)=O)c3)nc21` belongs under 800 nM. To `Cc1c[nH]c(CCNC(=O)c2cc(Nc3ncc4c(n3)N(C(C)C)CC(=O)N4C)cc(NS(C)(=O)=O)c2)n1` belongs under 800 nM. Compound `CC(C)N1CC(=O)N(C)c2cnc(Nc3cc(NC(=O)CC4CCCC4)cc(S(C)(=O)=O)c3)nc21` had an IC50 of under 800 nM. To `CC(C)N1CC(=O)N(C)c2cnc(Nc3cc(NC(=O)N[C@@H]4CCNC4)cc(S(C)(=O)=O)c3)nc21` belongs under 800 nM; to `CC(C)N1CC(=O)N(C)c2cnc(Nc3cc(NS(C)(=O)=O)cc(C(F)(F)F)c3)nc21`, under 800 nM. To `CC(C)N1CC(=O)N(C)c2cnc(Nc3cc(NC(=O)C[C@@H]4CCN(C5CCCC5)C4)cc(S(C)(=O)=O)c3)nc21` belongs under 800 nM; to `CC(C)N1CC(=O)N(C)c2cnc(Nc3cc(NC(=O)NC[C@H]4CCCN4c4ccncc4)cc(S(C)(=O)=O)c3)nc21`, under 800 nM; to `CC(C)N1CC(=O)N(C)c2cnc(Nc3cc(Nc4ccc(CN5CCN(C)CC5)cc4)cc(S(C)(=O)=O)c3)nc21`, under 800 nM. To `CC(C)N1CC(=O)N(C)c2cnc(Nc3cc(C(N)=O)cc(S(C)(=O)=O)c3)nc21` belongs under 800 nM. As for `CC(C)N1CC(=O)N(C)c2cnc(Nc3cc(NC(=O)C[C@H]4CCNC4)cc(S(C)(=O)=O)c3)nc21`, the concentration for half-maximal inhibition (IC50) is under 800 nM. To `CC(C)N1CC(=O)N(C)c2cnc(Nc3cc(NS(=O)(=O)c4ccc(F)cc4)cc(S(C)(=O)=O)c3)nc21` belongs under 800 nM; to `CC(C)N1CC(=O)N(C)c2cnc(Nc3cc(NS(=O)(=O)c4ccc(F)cc4)cc(S(N)(=O)=O)c3)nc21`, under 800 nM.

With `CN=[S@@](C)(=O)c1cccc(Nc2ncc3c(n2)N(C(C)C)CC(=O)N3C)c1`, the IC50 is under 800 nM. `CC(C)N1CC(=O)N(C)c2cnc(Nc3cc(NC(=O)[C@H](C)C4CCCCC4)cc(S(C)(=O)=O)c3)nc21` gave an IC50 of under 800 nM.
